Data taken from publication PMC5471521, “Novel selective β1-adrenoceptor antagonists for concomitant cardiovascular and respiratory disease” (The FASEB Journal, 2017).

What was measured:
[1] = Metabolic stability, human liver microsomes; assay type: in vitro ADME; conditions: in the presence of NAD+, NADPH, or in the absence of cofactors
Method: (§1) NDD-713.HCl and -825.HCl were incubated (0.02, 0.1, or 0.5 μM at 37°C, 120 min) with human (XenoTech, Kansas City, KS, USA) or rat liver microsomes (BD Biosciences, Brea, CA, USA) at 0.4 mg/ml protein concentration. Metabolic reaction was initiated by addition of NADPH-regenerating system or NADPH-regenerating system with uridine diphosphate glucuronic acid. Samples were quenched at time points by acetonitrile addition. Control samples, which contained neither NADPH, nor uridine diphosphate glucuronic acid, were monitored for degradation. Compound concentrations were determined by ultraperformance LC-MS (UPLC-MS) relative to calibration standards that were prepared in quenched liver microsomes and fitted to exponential decay functions to determine first-order rate constants (k) for substrate depletion. These were used to calculate in vitro intrinsic clearance (CLint) values: CLint = k/microsomal protein content (0.4 mg protein/ml). Metabolic stability assays that used rat liver cytosol (BD Biosciences), human cryopreserved hepatocytes, or rat hepatocytes were carried out similarly. Average viable cell concentrations were determined by Trypan Blue exclusion methods (in the absence of test compounds). Studies were carried out by CDCO.

β1-AR vs. β2-AR = test: Calculation of selectivity indices (receptor occupancy, PK-pharmacodynamic ternary complex model); conditions: human, exercise HR vs FEV1, ternary complex model
human β1-AR = molecular target: T1, human β1-AR (Homo sapiens, UniProt P08588); test: 3H-CGP12177 whole-cell binding in CHO-β1 cells; conditions: for Kd: CHO-β1 cells, mean ± SEM, read-out: Human β1-AR Log Kd (converted); for SI1a (in vitro binding) = Kd,β2/Kd,β1: Kd values from 3H-CGP12177 whole-cell binding, Table 1
T1 construct: expressed in transfected cells

human β3-AR = molecular target: T2, human β3-AR (Homo sapiens, UniProt P13945); test: Radioligand binding at human β3-AR
T2 construct: expressed in transfected cells
Method: Chinese hamster ovary (CHO) cells that stably express human β1-ARs (CHO-β1: 1146 fmol/mg protein), human β2-ARs (CHO-β2: 466 fmol/mg protein), or human β3-ARs (CHO-β3: 790 fmol/mg protein) were grown as previously described ([11]). Human bronchial smooth muscle cells were obtained from Lonza (Basel, Switzerland) and grown in manufacturer media. Rat β-AR binding experiments (DNA from cDNA Resource Centre, Bloomsburg, PA, USA) were conducted by using transiently transfected CHO cells ([44]).
Confluent cells were examined (96-well plates, 2 h incubation at 37°C) as previously described ([11]) with ^3H-CGP12177 at 0.43–3.03 nM. Propranolol (10 μM) defined nonspecific binding. Kd values were derived from IC50 values by using the Cheng-Prusoff equation as previously described ([11]).

[2] = tested on: panel of 80 receptors and ion channels; test: Cerep in vitro receptor selectivity profiling; assay type: binding; conditions: CGP20712A and LK204-545 at 10 μM, NDD-713 at 4.8 μM, NDD-825 at 2.4 μM
Method: Ki (inhibition constant) was calculated by using the Cheng-Prusoff equation from the mean of duplicate determinations in cell-based receptor radioligand-binding assays. Cerep in vitro pharmacology profiling service was used (see the Supplemental Data for a list of the assays used).

[3] = Metabolic stability, human hepatocytes; assay type: in vitro ADME; conditions: cryopreserved hepatocytes
Method: as §1

CYP2D6 = CYP2D6 (Homo sapiens, UniProt P10635); test: P450 inhibition in human liver microsomes; assay type: in vitro ADME; parameters: in human liver microsomes (batch 34689 for CYP1A2 and CYP3A4; batch 0910251 for CYP2C9, CYP2C19, and CYP2D6); tissue batch 0910251; host or cells: human liver microsomes; conditions: 0.25–20 μM, hydrochloride salts used
Method: (§2) Concentrations of NDD-713.HCl and -825.HCl (0.25–20 μM) were incubated in triplicate (37°C for 4–40 min) with substrates specific for individual P450 isoforms (see Supplemental Data for full details) in human liver microsomes (batch 34689 for CYP1A2 and CYP3A4; batch 0910251 for CYP2C9, CYP2C19, and CYP2D6) at protein concentrations of 0.4 mg/ml (CYP1A2, CYP2C9, CYP2D6 and CYP3A4/5) or 1.0 mg/ml (CYP2C19) and a total organic solvent concentration <1%. Reaction was initiated by addition of NADPH-regenerating system and samples were quenched by addition of ice-cold acetonitrile, which contained 0.15 μg/ml diazepam as an internal standard, before determination of the concentration of specific metabolites by LC-MS. Compound IC50 values (and positive control) for each P450 isoform was assessed according to %reduction in formation of the specific metabolite (maximal metabolite formation occurring in the absence of inhibitor). […] Control samples were included to confirm that the LC-MS assay was not affected by test compounds (and potential metabolites). Studies were carried out by CDCO.

CYP3A4/5 = test: P450 inhibition in human liver microsomes; assay type: in vitro ADME; conditions: 0.25–20 μM, hydrochloride salts used
Method: as §2

CYP2C9 = molecular target: T3, CYP2C9 (Homo sapiens, UniProt P11712); test: P450 inhibition in human liver microsomes; assay type: in vitro ADME; conditions: 0.25–20 μM, hydrochloride salts used
T3 construct: in human liver microsomes; tissue batch 0910251; host or cells: human liver microsomes
Method: as §2

CYP1A2 = molecular target: T4, CYP1A2 (Homo sapiens, UniProt P05177); test: P450 inhibition in human liver microsomes; assay type: in vitro ADME; conditions: 0.25–20 μM, hydrochloride salts used
T4 construct: in human liver microsomes (batch 34689 for CYP1A2 and CYP3A4; batch 0910251 for CYP2C9, CYP2C19, and CYP2D6); tissue batch 34689; host or cells: human liver microsomes
Method: as §2

CYP2C19 = molecular target: T5, CYP2C19 (Homo sapiens, UniProt P33261); test: P450 inhibition in human liver microsomes; assay type: in vitro ADME; conditions: 0.25–20 μM, hydrochloride salts used
T5 construct: in human liver microsomes; tissue batch 0910251; host or cells: human liver microsomes
Method: as §2

T1 sequence (P08588 whole entry): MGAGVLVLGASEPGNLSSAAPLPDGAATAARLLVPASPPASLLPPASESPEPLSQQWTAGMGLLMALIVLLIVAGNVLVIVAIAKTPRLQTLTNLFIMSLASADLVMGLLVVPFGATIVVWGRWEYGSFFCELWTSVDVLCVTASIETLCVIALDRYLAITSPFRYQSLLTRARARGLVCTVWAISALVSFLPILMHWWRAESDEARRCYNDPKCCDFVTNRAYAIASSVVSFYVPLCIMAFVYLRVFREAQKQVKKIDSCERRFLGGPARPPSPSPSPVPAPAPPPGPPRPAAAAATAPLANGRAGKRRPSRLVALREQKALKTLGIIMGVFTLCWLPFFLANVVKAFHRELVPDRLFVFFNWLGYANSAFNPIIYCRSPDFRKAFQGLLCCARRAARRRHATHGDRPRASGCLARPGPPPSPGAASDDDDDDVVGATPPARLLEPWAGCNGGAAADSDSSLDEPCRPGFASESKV
CYP2D6, sequence (P10635 whole entry, canonical isoform): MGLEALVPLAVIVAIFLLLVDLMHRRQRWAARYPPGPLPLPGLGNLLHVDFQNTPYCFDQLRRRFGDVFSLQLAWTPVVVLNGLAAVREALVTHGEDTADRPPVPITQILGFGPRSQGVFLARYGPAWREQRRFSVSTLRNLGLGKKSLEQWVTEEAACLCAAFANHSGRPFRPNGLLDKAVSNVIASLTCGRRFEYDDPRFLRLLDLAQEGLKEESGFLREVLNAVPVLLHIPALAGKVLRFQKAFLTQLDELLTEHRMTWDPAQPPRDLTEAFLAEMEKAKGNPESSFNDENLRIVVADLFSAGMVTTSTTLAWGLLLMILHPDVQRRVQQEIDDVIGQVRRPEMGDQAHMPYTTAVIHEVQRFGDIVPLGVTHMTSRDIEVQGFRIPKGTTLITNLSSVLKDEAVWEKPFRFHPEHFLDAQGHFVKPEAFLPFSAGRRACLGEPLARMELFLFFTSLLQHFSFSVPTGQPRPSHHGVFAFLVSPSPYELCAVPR
T4 sequence (P05177 whole entry): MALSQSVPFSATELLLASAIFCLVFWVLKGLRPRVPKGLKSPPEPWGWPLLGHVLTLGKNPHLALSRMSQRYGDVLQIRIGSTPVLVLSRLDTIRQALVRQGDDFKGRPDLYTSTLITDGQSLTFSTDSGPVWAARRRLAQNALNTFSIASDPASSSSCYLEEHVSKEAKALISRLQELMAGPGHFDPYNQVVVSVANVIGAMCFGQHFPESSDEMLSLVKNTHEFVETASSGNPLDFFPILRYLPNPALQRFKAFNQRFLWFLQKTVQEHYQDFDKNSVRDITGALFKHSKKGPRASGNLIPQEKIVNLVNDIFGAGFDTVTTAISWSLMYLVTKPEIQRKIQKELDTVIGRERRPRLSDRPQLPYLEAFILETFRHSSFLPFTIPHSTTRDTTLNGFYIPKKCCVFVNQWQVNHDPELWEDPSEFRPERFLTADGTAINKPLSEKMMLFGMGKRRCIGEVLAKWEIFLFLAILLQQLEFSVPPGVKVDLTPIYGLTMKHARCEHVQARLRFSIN
T3 sequence (P11712 whole entry): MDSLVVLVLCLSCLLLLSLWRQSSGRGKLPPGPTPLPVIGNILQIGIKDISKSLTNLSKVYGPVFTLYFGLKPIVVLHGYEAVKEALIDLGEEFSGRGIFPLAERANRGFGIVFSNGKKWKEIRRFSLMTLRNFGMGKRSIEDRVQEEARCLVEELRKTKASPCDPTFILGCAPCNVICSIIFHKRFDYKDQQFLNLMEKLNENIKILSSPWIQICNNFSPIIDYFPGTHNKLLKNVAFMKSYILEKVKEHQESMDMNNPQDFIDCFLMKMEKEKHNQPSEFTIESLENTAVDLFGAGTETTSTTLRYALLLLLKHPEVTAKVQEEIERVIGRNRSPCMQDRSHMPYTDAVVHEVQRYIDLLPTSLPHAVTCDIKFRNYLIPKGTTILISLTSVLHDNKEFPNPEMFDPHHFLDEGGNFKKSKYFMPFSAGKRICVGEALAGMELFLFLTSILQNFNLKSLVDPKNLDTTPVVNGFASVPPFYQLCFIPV
T2 sequence (P13945 whole entry): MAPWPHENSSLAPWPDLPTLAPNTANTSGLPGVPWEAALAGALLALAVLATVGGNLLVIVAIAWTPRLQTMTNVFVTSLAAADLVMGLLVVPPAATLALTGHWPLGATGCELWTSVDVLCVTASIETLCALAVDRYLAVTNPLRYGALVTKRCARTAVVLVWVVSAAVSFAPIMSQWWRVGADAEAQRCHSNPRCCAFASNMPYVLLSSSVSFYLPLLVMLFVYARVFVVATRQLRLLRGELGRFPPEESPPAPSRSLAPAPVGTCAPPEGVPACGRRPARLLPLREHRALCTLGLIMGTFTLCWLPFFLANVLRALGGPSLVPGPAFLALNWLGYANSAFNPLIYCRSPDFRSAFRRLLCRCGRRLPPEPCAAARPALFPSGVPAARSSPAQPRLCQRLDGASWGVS
T5 sequence (P33261 whole entry): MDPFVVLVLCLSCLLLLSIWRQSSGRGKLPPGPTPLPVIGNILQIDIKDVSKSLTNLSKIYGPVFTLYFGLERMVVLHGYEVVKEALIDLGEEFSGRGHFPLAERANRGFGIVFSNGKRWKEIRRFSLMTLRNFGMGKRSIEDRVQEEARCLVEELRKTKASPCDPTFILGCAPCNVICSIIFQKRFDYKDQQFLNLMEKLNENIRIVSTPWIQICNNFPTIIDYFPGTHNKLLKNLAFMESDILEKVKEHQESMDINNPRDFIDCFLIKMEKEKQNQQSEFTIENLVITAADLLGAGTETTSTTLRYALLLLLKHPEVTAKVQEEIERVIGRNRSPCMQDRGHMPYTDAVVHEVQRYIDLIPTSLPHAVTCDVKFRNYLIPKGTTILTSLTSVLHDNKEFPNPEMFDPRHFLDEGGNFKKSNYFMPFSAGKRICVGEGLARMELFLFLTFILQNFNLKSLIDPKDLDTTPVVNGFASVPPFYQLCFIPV

| SMILES | microsomal CLint [1] | SI3 (in vivo pharmacologic response) = Eβ1/Eβ2 (β1-AR vs. β2-AR) | Kd (human β1-AR) | SI1a (in vitro binding) = Kd,β2/Kd,β1 (human β1-AR) | Affinity at human β3-AR (human β3-AR) | Off-target binding in receptor and ion channel panel [2] | hepatocyte CLint [3] | IC50 (CYP2D6) | IC50 (CYP3A4/5) | IC50 (CYP2C9) | IC50 (CYP1A2) | IC50 (CYP2C19) | Human β1 vs. β2 selectivity Kd,β2/Kd,β1 (human β1-AR; from 3H-CGP12177 whole-cell binding) |
| --- | --- | --- | --- | --- | --- | --- | --- | --- | --- | --- | --- | --- | --- |
| O=C1NCc2cc(OCCNC[C@H](O)COc3ccc4c(c3)OC[C@@H](COCC3CC3)O4)ccc21 [NDD-825] | < 0.16 µL/min/mg | 81 | 0.00525 µM | 1023 | so low that accurate measurements were not possible | poor affinity for most other GPCRs and ion channels | 6 µL/min/1e6 cells | > 20 µM | > 20 µM | > 20 µM | > 20 µM | > 20 µM |  |
| NC(=O)c1ccc(OCCNC[C@H](O)COc2ccc3c(c2)OC[C@@H](COCC2CC2)O3)cc1 [NDD-713] | < 0.16 µL/min/mg | 67 | 0.0151 µM | 589 | so low that accurate measurements were not possible | poor affinity for most other GPCRs and ion channels | < 6 µL/min/1e6 cells | > 20 µM | > 20 µM | > 20 µM | > 20 µM | > 20 µM | 589 |
